The text below walks through data of the supplement of paper PMC10307832.

Holding throughout (assay): relative viability (nuclei count vs DMSO), 5 days (fraction); higher = more cells survive
Compound in the test “Palbociclib + Olaparib”: CC(=O)c1c(C)c2cnc(Nc3ccc(N4CCNCC4)cn3)nc2n(C2CCCC2)c1=O [Palbociclib] + O=C(c1cc(Cc2n[nH]c(=O)c3ccccc23)ccc1F)N1CCN(C(=O)C2CC2)CC1 [Olaparib] (partner 8 µM)
Summed up: (§1)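 Lung cancer cell lines were seeded in 1536-well plates and dosed by pin tool the next day, with either a single drug or a fixed anchor-drug dose combined with five library-drug doses (not always all listed) spaced in √10 steps. Five days later, one step fixed the cells and stained their nuclei (final 0.05% Triton X-100, 1% formaldehyde, 1 ug/ml Hoechst), and nuclei were counted on 4× images. Relative viability is the nuclei count in treated wells divided by the count in vehicle wells, and each value is the median of duplicate plates.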

Compound in the test “Palbociclib + Pemetrexed”: CC(=O)c1c(C)c2cnc(Nc3ccc(N4CCNCC4)cn3)nc2n(C2CCCC2)c1=O [Palbociclib] + Nc1nc2[nH]cc(CCc3ccc(C(=O)N[C@@H](CCC(=O)O)C(=O)O)cc3)c2c(=O)[nH]1 [Pemetrexed] (partner 0.2 µM)
Summed up: as §1

Compound in the test “Palbociclib + OSI-027”: CC(=O)c1c(C)c2cnc(Nc3ccc(N4CCNCC4)cn3)nc2n(C2CCCC2)c1=O [Palbociclib] + COc1cccc2cc(-c3nc([C@H]4CC[C@H](C(=O)O)CC4)n4ncnc(N)c34)[nH]c12 [OSI-027] (partner 0.5 µM)
The gist of the method:
as §1

Compound in the test “Palbociclib + Linsitinib”: CC(=O)c1c(C)c2cnc(Nc3ccc(N4CCNCC4)cn3)nc2n(C2CCCC2)c1=O [Palbociclib] + C[C@]1(O)C[C@@H](c2nc(-c3ccc4ccc(-c5ccccc5)nc4c3)c3c(N)nccn32)C1 [Linsitinib] (partner 1 µM)
Summed up:
as §1

As to 201T, the relative viability in the test with Palbociclib + Olaparib (first compound 0.01 µM) came to 0.817; with Palbociclib + Olaparib (first compound 0.03162 µM), 0.819; with Palbociclib + Olaparib (first compound 0.1 µM) it was 0.781; with Palbociclib + Olaparib (first compound 0.3162 µM), 0.684; in the test with Palbociclib + Olaparib (first compound 1 µM), 0.65; with Palbociclib + Pemetrexed (first compound 0.01 µM), 0.343. In addition, the relative viability with Palbociclib + Pemetrexed (first compound 0.03162 µM) was found to be 0.342; with Palbociclib + Pemetrexed (first compound 0.1 µM), 0.358; with Palbociclib + Pemetrexed (first compound 0.3162 µM), 0.372; with Palbociclib + Pemetrexed (first compound 1 µM) it was 0.283; with Palbociclib + OSI-027 (first compound 0.01 µM), 0.763; with Palbociclib + OSI-027 (first compound 0.03162 µM), 0.676. In addition, the relative viability stood at 0.661 with Palbociclib + OSI-027 (first compound 0.1 µM); 0.613 with Palbociclib + OSI-027 (first compound 0.3162 µM); 0.338 with Palbociclib + OSI-027 (first compound 1 µM); 1.01 with Palbociclib + Linsitinib (first compound 0.01 µM); 0.97 with Palbociclib + Linsitinib (first compound 0.03162 µM); 0.901 in the test with Palbociclib + Linsitinib (first compound 0.1 µM). For the same cell line, the relative viability was 0.938 with Palbociclib + Linsitinib (first compound 0.3162 µM) and 0.716 with Palbociclib + Linsitinib (first compound 1 µM).

For the cell line A549, the relative viability came to 0.345 in the test with Palbociclib + Olaparib (first compound 0.01 µM); 0.0522 in the test with Palbociclib + Olaparib (first compound 0.03162 µM); 0.282 with Palbociclib + Olaparib (first compound 0.1 µM); 0.3 with Palbociclib + Olaparib (first compound 0.3162 µM); 0.231 with Palbociclib + Olaparib (first compound 1 µM); 0.619 with Palbociclib + Linsitinib (first compound 0.01 µM). In addition, the relative viability in the test with Palbociclib + Linsitinib (first compound 0.03162 µM) came out at 0.38; in the test with Palbociclib + Linsitinib (first compound 0.1 µM) it was 0.316; with Palbociclib + Linsitinib (first compound 0.3162 µM), 0.457; in the test with Palbociclib + Linsitinib (first compound 1 µM), 0.274.

As to A-427, the relative viability was 0.737 with Palbociclib + Olaparib (first compound 0.01 µM); 0.626 in the test with Palbociclib + Olaparib (first compound 0.03162 µM); 0.514 with Palbociclib + Olaparib (first compound 0.1 µM); 0.514 with Palbociclib + Olaparib (first compound 0.3162 µM); 0.391 with Palbociclib + Olaparib (first compound 1 µM); 0.96 with Palbociclib + Pemetrexed (first compound 0.01 µM). Further, the relative viability stood at 0.879 with Palbociclib + Pemetrexed (first compound 0.03162 µM); 0.779 with Palbociclib + Pemetrexed (first compound 0.1 µM); 0.633 with Palbociclib + Pemetrexed (first compound 0.3162 µM); 0.497 with Palbociclib + Pemetrexed (first compound 1 µM); 0.467 with Palbociclib + OSI-027 (first compound 0.01 µM); 0.271 with Palbociclib + OSI-027 (first compound 0.03162 µM). The relative viability with Palbociclib + OSI-027 (first compound 0.1 µM) amounted to 0.282; with Palbociclib + OSI-027 (first compound 0.3162 µM), 0.33; in the test with Palbociclib + OSI-027 (first compound 1 µM), 0.308; with Palbociclib + Linsitinib (first compound 0.01 µM), 1.15; in the test with Palbociclib + Linsitinib (first compound 0.03162 µM), 1.08; in the test with Palbociclib + Linsitinib (first compound 0.1 µM), 1.01. In addition, the relative viability in the test with Palbociclib + Linsitinib (first compound 0.3162 µM) was determined as 0.942; in the test with Palbociclib + Linsitinib (first compound 1 µM) it was 0.806.

As to ABC-1, the relative viability amounted to 0.89 in the test with Palbociclib + Olaparib (first compound 0.01 µM); 0.757 with Palbociclib + Olaparib (first compound 0.03162 µM); 0.602 with Palbociclib + Olaparib (first compound 0.1 µM); 1.04 in the test with Palbociclib + Olaparib (first compound 0.3162 µM); 0.898 in the test with Palbociclib + Olaparib (first compound 1 µM); 0.483 with Palbociclib + OSI-027 (first compound 0.01 µM). The relative viability in the test with Palbociclib + OSI-027 (first compound 0.03162 µM) was determined as 0.443; with Palbociclib + OSI-027 (first compound 0.1 µM), 0.436; with Palbociclib + OSI-027 (first compound 0.3162 µM), 0.351; with Palbociclib + OSI-027 (first compound 1 µM), 0.301; in the test with Palbociclib + Linsitinib (first compound 0.01 µM), 1.06; with Palbociclib + Linsitinib (first compound 0.03162 µM), 0.925. Besides, the values for the relative viability with Palbociclib + Linsitinib (first compound 0.1 µM), in the test with Palbociclib + Linsitinib (first compound 0.3162 µM) and in the test with Palbociclib + Linsitinib (first compound 1 µM) were 0.666, 0.583 and 0.382, respectively.

On to BEN, for which the relative viability with Palbociclib + Olaparib (first compound 0.01 µM) is 1.01; in the test with Palbociclib + Olaparib (first compound 0.03162 µM), 0.992; with Palbociclib + Olaparib (first compound 0.1 µM) it was 0.615; with Palbociclib + Olaparib (first compound 0.3162 µM), 0.945; with Palbociclib + Olaparib (first compound 1 µM) it was 0.594; with Palbociclib + Pemetrexed (first compound 0.01 µM), 0.894. Further, the relative viability was 0.596 in the test with Palbociclib + Pemetrexed (first compound 0.03162 µM); 0.609 with Palbociclib + Pemetrexed (first compound 0.1 µM); 0.585 with Palbociclib + Pemetrexed (first compound 0.3162 µM); 0.38 with Palbociclib + Pemetrexed (first compound 1 µM); 0.298 with Palbociclib + OSI-027 (first compound 0.01 µM); 0.274 with Palbociclib + OSI-027 (first compound 0.03162 µM). In addition, the relative viability came to 0.255 with Palbociclib + OSI-027 (first compound 0.1 µM); 0.252 with Palbociclib + OSI-027 (first compound 0.3162 µM); 0.286 in the test with Palbociclib + OSI-027 (first compound 1 µM); 1.14 with Palbociclib + Linsitinib (first compound 0.01 µM); 0.759 with Palbociclib + Linsitinib (first compound 0.03162 µM); 0.618 with Palbociclib + Linsitinib (first compound 0.1 µM). Moreover, the relative viability with Palbociclib + Linsitinib (first compound 0.3162 µM) came out at 0.747; in the test with Palbociclib + Linsitinib (first compound 1 µM) it was 0.497.

In the case of CAL-12T, the relative viability was determined as 0.667 with Palbociclib + Olaparib (first compound 0.01 µM); 0.675 in the test with Palbociclib + Olaparib (first compound 0.03162 µM); 0.577 with Palbociclib + Olaparib (first compound 0.1 µM); 0.531 in the test with Palbociclib + Olaparib (first compound 0.3162 µM); 0.505 with Palbociclib + Olaparib (first compound 1 µM); 1.14 with Palbociclib + Pemetrexed (first compound 0.01 µM). In addition, the relative viability was 1.1 in the test with Palbociclib + Pemetrexed (first compound 0.03162 µM); 0.924 in the test with Palbociclib + Pemetrexed (first compound 0.1 µM); 0.672 with Palbociclib + Pemetrexed (first compound 0.3162 µM); 0.637 with Palbociclib + Pemetrexed (first compound 1 µM); 0.766 with Palbociclib + OSI-027 (first compound 0.01 µM); 0.546 with Palbociclib + OSI-027 (first compound 0.03162 µM). Also, the relative viability with Palbociclib + OSI-027 (first compound 0.1 µM) turned out to be 0.441; with Palbociclib + OSI-027 (first compound 0.3162 µM) it was 0.446; in the test with Palbociclib + OSI-027 (first compound 1 µM), 0.316; with Palbociclib + Linsitinib (first compound 0.01 µM), 0.9; with Palbociclib + Linsitinib (first compound 0.03162 µM) it was 0.699; with Palbociclib + Linsitinib (first compound 0.1 µM), 0.768. For the same cell line, the relative viability with Palbociclib + Linsitinib (first compound 0.3162 µM) was found to be 0.679; in the test with Palbociclib + Linsitinib (first compound 1 µM), 0.56.

For COR-L23, the relative viability with Palbociclib + Olaparib (first compound 0.01 µM) is 0.312; with Palbociclib + Olaparib (first compound 0.03162 µM), 0.271; with Palbociclib + Olaparib (first compound 0.1 µM), 0.233; with Palbociclib + Olaparib (first compound 0.3162 µM), 0.194; with Palbociclib + Olaparib (first compound 1 µM) it was 0.175; with Palbociclib + Pemetrexed (first compound 0.01 µM) it was 0.183. For the same cell line, the relative viability in the test with Palbociclib + Pemetrexed (first compound 0.03162 µM) worked out at 0.202; with Palbociclib + Pemetrexed (first compound 0.1 µM), 0.201; with Palbociclib + Pemetrexed (first compound 0.3162 µM) it was 0.191; in the test with Palbociclib + Pemetrexed (first compound 1 µM), 0.203; in the test with Palbociclib + OSI-027 (first compound 0.01 µM), 0.763; with Palbociclib + OSI-027 (first compound 0.03162 µM), 0.6. Besides, the relative viability is 0.491 with Palbociclib + OSI-027 (first compound 0.1 µM); 0.521 with Palbociclib + OSI-027 (first compound 0.3162 µM); 0.39 with Palbociclib + OSI-027 (first compound 1 µM); 0.9 with Palbociclib + Linsitinib (first compound 0.01 µM); 0.844 with Palbociclib + Linsitinib (first compound 0.03162 µM); 0.637 with Palbociclib + Linsitinib (first compound 0.1 µM). Also, the relative viability with Palbociclib + Linsitinib (first compound 0.3162 µM) worked out at 0.552; with Palbociclib + Linsitinib (first compound 1 µM), 0.344.
